Earlier results, collected in US20030116748A1, “Environmentally friendly compositions having anti-icing, deicing or graffiti prevention properties” (priority 1995, published 2003).
Read-outs that look alike come from different tables or passages of the source. Each block holds one compound with its values, some of them ahead of it.

Experiments:
[1] = for OSHA PEL: 8 hour time-weighted average
[2] = individual component at full concentration

SMILES: OCCO [Ethylene Glycol]
Permissible concentration limits, Water (Arizona, Massachusetts, Maine): 5.50 (Arizona, mg/L
Permissible concentration limits, Water (Connecticut): 0.10 (Connecticut) mg/L
Permissible concentration limits, Air (Federal): 125 (Federal) mg/m^3
Permissible concentration limits, Air (Massachusetts): 0.17 mg/m^3
Permissible concentration limits, Air (Nevada): 2.98 (Nevada) mg/m^3
Permissible concentration limits, Water (New Jersey): 0.29 (New Jersey) mg/L
Permissible concentration limits, Air (North Dakota): 1.25 (North mg/m^3
Permissible concentration limits, Water (U.S. EPA): 0.14 (U.S. EPA) mg/L
Permissible concentration limits, Air (Virginia): 1.00 (Virginia) mg/m^3

OSHA PEL [1]: 400 ppm
OSHA PEL ([1]; value in brackets): 980 mg/m^3
NIOSH ([1]; 10 hour time-weighted average): 400 ppm
NIOSH (STEL) ([1]; Short Term Exposure Limit): 500 ppm
ACGIH TLV ([1]; time-weighted average): 400 ppm
Solubility in Water [2]: miscible
SMILES: CC(C)O [Example 2-Propanol, 2-Propanol]

Solubility in Water [2]: miscible
SMILES: OCC(O)CO [Glycerin, 1,2,3-Propanetriol]

Permissible concentration limits, Air (Federal): 156 (Federal) mg/m^3
SMILES: CC(O)CO (centres unmarked) [Propylene Glycol, 1,2-propanediol]
